In ChEMBL document CHEMBL4418497, “Compositions and methods relating to inhibiting serine hyrdoxymethyltransferase 2 activity” (2016):

Molecular target: T1, Serine hydroxymethyltransferase, mitochondrial (Homo sapiens, UniProt P34897)
T1 sequence (P34897 whole entry): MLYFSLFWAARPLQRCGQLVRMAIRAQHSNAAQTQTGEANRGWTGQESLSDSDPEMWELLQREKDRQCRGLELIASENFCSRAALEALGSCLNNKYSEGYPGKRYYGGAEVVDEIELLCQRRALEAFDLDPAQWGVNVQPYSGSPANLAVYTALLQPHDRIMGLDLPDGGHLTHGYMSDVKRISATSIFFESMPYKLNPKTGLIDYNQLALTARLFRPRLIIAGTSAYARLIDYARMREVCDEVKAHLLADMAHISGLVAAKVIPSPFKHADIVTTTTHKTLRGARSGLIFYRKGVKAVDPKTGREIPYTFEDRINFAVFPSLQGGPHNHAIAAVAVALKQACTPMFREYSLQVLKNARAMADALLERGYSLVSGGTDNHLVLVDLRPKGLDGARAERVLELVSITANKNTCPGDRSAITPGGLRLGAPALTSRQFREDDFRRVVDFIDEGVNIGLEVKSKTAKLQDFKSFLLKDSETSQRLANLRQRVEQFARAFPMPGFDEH
Experiment: Inhibition of His-tagged human recombinant SHMT2 expressed in Escherichia coli BLR(DE3) assessed as reduction in NADPH level using L-serine, THF and NADP+ incubated for 5 mins by SHMT2-MTHFD coupled reaction based fluorescence assay
Details: read-out: IC50

SMILES	IC50
CCOC(=O)c1c(S(=O)(=O)Nc2ccc(OC)c(OC)c2)c(C)n(C)c1C	8.13 µM
Cn1cc(NC(=O)NCC2COc3ccccc3O2)c2ccccc2c1=O (centres undefined)	4.68 µM
CN1CCc2nc3sc(C(=O)c4ccc(Cl)cc4)c(N)c3cc2C1	3.89 µM
COc1ccc(Nc2nnc(Cc3ccncc3)c3ccccc23)c(OC)c1	3.89 µM
COc1cccc(NS(=O)(=O)c2ccc3c4c2CC(=O)N4CC(C)S3)c1 (centres undefined)	3.63 µM
Cn1cc(NC(=O)NCc2cccnc2)c2ccccc2c1=O	5.75 µM
CCC(CC)n1nc(O)c2c(C)cc(=O)[nH]c21	7.41 µM
Cn1c(=O)oc2cc(S(=O)(=O)N3CCC4(CC3)Nc3cc(F)ccc3-n3cccc34)ccc21	8.51 µM
COc1ccc(NC(=O)N2CCSc3ccccc32)cc1OC	7.08 µM
O=C(CSc1nc2ncccc2o1)Nc1ccc(S(=O)(=O)NC2CCCCC2)cc1	3.02 µM
CCOC(=O)C1CCCN(C(=O)Nc2cn(C)c(=O)c3ccccc23)C1 (centres undefined)	6.46 µM
COc1cc2c(cc1OC)C(C)N(C(=O)Nc1cn(CC(C)C)c(=O)c3ccccc13)CC2 (centres undefined)	3.02 µM
CCOC(=O)Cc1csc(NC(=O)Nc2cn(CC(C)C)c(=O)c3ccccc23)n1	3.31 µM
CCOc1ccc(C2CC(=O)N3CN(c4ccc(OCC)cc4)CSC3=C2C#N)cc1 (centres undefined)	10.5 µM
COc1ccc(Nc2nc(NC3CCCC3)nc3c2cnn3C)cc1	2.69 µM
COc1cc(OC)c(NC(=O)N2CCn3cccc3C2C)cc1Cl (centres undefined)	12.9 µM
Cc1cc(C)n(-c2nnc(Nc3ccc4c(c3)OCCO4)c3ccccc23)n1	2.19 µM
CCC(Sc1nc2ncccc2o1)C(=O)Nc1c(C)cc(C)cc1C (centres undefined)	2.51 µM
CCOc1cc(-c2nnc3[nH]c(=O)n(C)c(=O)c3n2)ccc1OC(C)C	0.69 µM
CCN(CC)CCNC(=O)c1noc2c1CCc1sccc1-2	4.17 µM
COc1ccc(OC)c(NC(=O)CSc2nc3ncccc3o2)c1	2.14 µM
C=CCOc1ccc(C2CC(=O)Nc3c(-c4ccccc4OC)csc32)cc1 (centres undefined)	1.02 µM
CC(C)Cn1cc(NC(=O)Nc2ccc(F)cc2Cl)c2ccccc2c1=O	1.86 µM
O=C(Nc1cc(F)c2nc(N3CCOCC3)ccc2c1)C1CCC1	1.55 µM

SMILES	IC50
COc1ccc(Cl)cc1NC(=O)N1CC2CCCN2c2ccccc21 (centres undefined)	2 µM
COc1ccc(NC(=O)N2CCN3CCCCC3C2)cc1OC (centres undefined)	3.39 µM
COc1cc(OC)c(NC(=O)NCCc2csc(C)c2C)cc1Cl	4.57 µM
CC1=NC2c3c(oc(C(=O)NC4CCCC4)c3C)CCC2S1 (centres undefined)	4.37 µM
CC(C)Cn1cc(NC(=O)NCCN2CCN(C)CC2)c2ccccc2c1=O	2.45 µM
O=C(CSc1nc2ncccc2o1)Nc1ccc(S(=O)(=O)N2CCOCC2)cc1	2.63 µM
CC(C)Cn1cc(NC(=O)N2CCN(C(=O)c3ccco3)CC2)c2ccccc2c1=O	4.57 µM
Cc1ccc2oc(SCC(=O)Nc3ccc(S(=O)(=O)N4CCCC4)cc3)nc2n1	11.8 µM
CC(=O)Oc1cc2c(C(=O)N3CCN(c4ccccc4)CC3)c(C)oc2c2ccccc12	2.88 µM
COCCCNc1nc(Nc2ccc(OC)cc2)c2cnn(C)c2n1	2.34 µM
CCOC(=O)C1CCN(c2cc(C(=O)O)c3cc(N)ccc3n2)CC1	6.46 µM
COc1ccc(OC)c(NC(=O)N2CCN(S(=O)(=O)c3ccc4c(ccn4C)c3)CC2)c1	3.24 µM
CC(C)Cn1cc(NC(=O)Nc2cccnc2)c2ccccc2c1=O	2.24 µM
CC(C)Cn1cc(NC(=O)Nc2ccccn2)c2ccccc2c1=O	3.31 µM
CC(C)CC(=O)Nc1cc(F)c2nc(N3CCOCC3)ccc2c1	2.57 µM
CCOc1ccc(NS(=O)(=O)c2ccc3c4c2CC(=O)N4CC(C)S3)cc1 (centres undefined)	5.01 µM
CCCN1CCN(CCCNC(=O)c2oc3c(c2C)-c2[nH]ncc2CC3)CC1	5.13 µM
COc1cc(OC)c(NC(=O)Nc2cn(CC(C)C)c(=O)c3ccccc23)cc1Cl	2.95 µM
CCOc1ccc(Nc2ncnc3sc(C(=O)O)c(C)c23)cc1	9.33 µM
Cc1nc(SCC(=O)Nc2cccc3nsnc23)oc1C	2.51 µM
CC(C)Cn1cc(NC(=O)N(Cc2ccco2)C2CCCCC2C)c2ccccc2c1=O (centres undefined)	6.31 µM
COc1ccc(NC2c3ncccc3C(=O)N2Cc2ccco2)cc1OC (centres undefined)	12.6 µM
CNc1nc2[nH]c(=O)cc(O)c2s1	2.51 µM
CC(C)Cn1cc(NC(=O)N2CCCc3ccccc32)c2ccccc2c1=O	3.02 µM

SMILES	IC50
O=C(Nc1ccc(Br)cc1F)N1CCSc2ncccc21	7.59 µM
O=C(Nc1cc(F)c2nc(N3CCOCC3)ccc2c1)C1CC1	1.17 µM
O=C1CSC(c2ccccn2)N1c1ccc2ccccc2c1 (centres undefined)	11 µM
Cc1cc2nc(CSc3nc4ccc(NC(=O)CCC5CCCC5)cc4s3)cc(=O)n2o1	9.55 µM
O=C(Nc1ccc2c(c1)OCCO2)N1CCSc2ncccc21	2.75 µM
Cc1c(C(=O)N2CCOCC2)oc2c1-c1nn(CC(=O)NC3CCCCC3C)cc1CC2 (centres undefined)	3.16 µM
COc1ccc(NS(=O)(=O)c2cc(Br)cnc2N)cc1OC	7.76 µM
O=C1CN(S(=O)(=O)c2ccc3[nH]c4c(c3c2)CCCC4)c2ccccc2N1	6.76 µM
C=CCNc1nc(Nc2ccc(OC)cc2)c2cnn(C)c2n1	1.62 µM
COc1ccc(OC)c(NS(=O)(=O)c2ccc3c(c2)S(=O)(=O)NC=N3)c1	4.07 µM
CC(C)Cn1cc(NC(=O)Nc2cc(F)ccc2F)c2ccccc2c1=O	4.27 µM
Cc1ccc2c(c1)c1c(n2CC(O)CNCCO)C(=O)CCC1 (centres undefined)	5.01 µM
COc1ccc(NC(=O)N2CCC3(CC2)Nc2ccccc2-n2cccc23)c(OC)c1	3.47 µM
CC(C)Cn1cc(NC(=O)NCCCN2CCCC(C)C2)c2ccccc2c1=O (centres undefined)	2.45 µM
CC(C)Cn1cc(NC(=O)N2CCC(C(N)=O)(N3CCCCC3)CC2)c2ccccc2c1=O	2.51 µM
Fc1ccc(NCc2ccc3nccnc3c2)c(F)c1	2.75 µM
O=c1c(Nc2cccc3c2CCCC3)c(-c2ccc(Cl)cc2)c1=O	5.25 µM
CNc1nc(Nc2ccc(OC)cc2)c2cnn(C)c2n1	13.8 µM
COc1cc(NC(=O)C2CCC2)cc2sc(NS(=O)(=O)c3ccccc3)nc12	8.13 µM
COc1ccc(N2C(=O)c3cccnc3C2Nc2ccc(OC)c(OC)c2)cc1 (centres undefined)	2.95 µM
CCN(CC)S(=O)(=O)c1ccc(NC(=O)Nc2cn(CC(C)C)c(=O)c3ccccc23)cc1	3.72 µM
COc1ccc(Nc2nc(NCCO)nc3c2cnn3C)cc1	1.86 µM

Molecular target: T2, Serine hydroxymethyltransferase, mitochondrial (Homo sapiens) (UniProt P34897)
T2 sequence (whole entry): T1 sequence (P34897 whole entry)
Experiment: Inhibition of His-tagged human recombinant SHMT2 expressed in Escherichia coli BLR(DE3) assessed as reduction in NADPH level using L-serine, THF and NADP+ at 6.5 or 26.5 uM incubated for 5 mins by SHMT2-MTHFD coupled reaction based fluorescence assay relative to control
Details: not given

SMILES	inhibition
Nc1nc(=O)c2nc(CNc3ccc(C(=O)N[C@@H](CCC(=O)O)C(=O)O)cc3)cnc2[nH]1	53.6%
COC(=O)[C@@H]1OC(=O)C2OC23[C@]2(C)[C@H](O)CC4C(C)(C)[C@H](OC(C)=O)C[C@H](OC(C)=O)[C@]4(C)[C@H]2CC[C@@]13C (some centres undefined)	81.8%
Cc1cccc(CCN2CCC(C(=O)c3ccc(NS(C)(=O)=O)cc3)CC2)n1	54.9%
NC(=O)NC1NC(=O)NC1=O (centres undefined)	58.2%
Oc1ccc2[nH]cc(C3=CCNCC3)c2n1	73.2%
COc1cc2c(CCNC(C)=O)c[nH]c2cc1O	92.7%
COC(=O)[C@@H]1[C@H]2C[C@H]3c4[nH]c5ccccc5c4CCN3C[C@@H]2CC[C@@H]1O	57.4%
COC(=O)CC1C(C)(C)C(OC(C)=O)[C@@H]2[C@@H](OC(C)=O)[C@]34O[C@@H]2[C@]1(C)C3CC[C@]1(C)C4=CC(=O)O[C@H]1c1ccoc1 (some centres undefined)	52.4%
N#Cc1ccc(S(=O)(=O)Cc2cccc3ccccc23)cc1	54.5%
Cc1[nH]c2ccc(O)cc2c1CCN	59%
CN1CCN(CCCN2c3ccccc3SC3C=CC(Cl)=CC32)CC1 (centres undefined)	61.6%
COc1cc(OC)c2c(c1Cl)OC1(C2=O)C(O)=CC(=O)CC1C (centres undefined)	77.8%
CC(C)(C)C(=O)C(C#N)CNc1cccc2nsnc12 (centres undefined)	69.6%
CCC(N)C(O)c1ccc(O)c(O)c1 (centres undefined)	87%
Fc1ccc(COc2ccc(-c3nnco3)cc2)cc1	53.7%
CC(=O)N[C@H]1CN2CC[C@H](O)[C@@H]2[C@@H](O)[C@@H]1O	63.8%
CCNc1cc(N)[n+](CC)c2[nH]nc(/N=C/c3cc(Cl)cc(Cl)c3O)c12	97%
Cc1nc2c(OCc3ccccc3)cccn2c1CC#N	77.9%
COC(=O)[C@@H]1C(O)CC[C@H]2CN3CCc4c([nH]c5ccccc45)[C@@H]3C[C@@H]21 (some centres undefined)	73.9%
Cc1onc(-c2c(Cl)cccc2Cl)c1NC(=O)Nc1ccc(N(C)C)c(Cl)c1C#N	97.1%
COc1ccc(OC)c(NC(=S)N2CCN(c3ncc(C(F)(F)F)cc3Cl)CC2)c1	60.2%
CS(=O)(=O)c1ccc2ccn(O)c2c1	60.3%
COC(=O)/C=C(/Nc1cc(OC)ccc1OC)C(=O)OC	56.3%
CC(C)C[C@H](N(C)C)C1(c2ccc(Cl)cc2)CCC1	62%
c1ccc2c(N3CCNCC3)cccc2c1	86.1%
COc1ccc2cc1Oc1ccc(cc1)C[C@H]1c3c(cc4c(c3Oc3cc5c(cc3OC)CCN(C)[C@@H]5C2)OCO4)CCN1C	70.4%
COC(=O)[C@@H](c1ccc2sccc2c1)c1ccccc1Cl	53.3%
CC(=O)[C@H]1CC[C@H]2[C@@H]3CCC4C[C@H](O)CC[C@]4(C)[C@H]3C[C@H](O)[C@]12C (some centres undefined)	71.6%
CC(C(=O)Nc1cccc(/N=C/c2c(O)ccc3ccccc23)c1)c1ccccc1 (centres undefined)	60.1%
